“Also recorded” adds a separate entry of the source. One block for each compound: values may come before it. *1 amine or outer side, *2 acyl side, *3 side chain or, on linkers, in order; H or OH if unused. Where a SMILES comes first, the peptide text is derived from it. Bridges are numbered along the chain shown (N, C = ends). Roman numbers before positions name the chains, in order. [ ]: non-standard residue; d: D form. Actinocin(9to1) = Cc1c2oc3c(C)ccc(C(=O)[*:1])c3nc-2c(C(=O)[*:2])c(N)c1=O; NMeV = CN[C@H](C(=O)O)C(C)C; Sar = CNCC(=O)O
Legend:
[1] = system: lung fibroblasts; test: Western blotting of fibroblast culture supernatants for collagen type I / α1(I); type: cell-based, human; details: lung fibroblast cultures, 48 h; for effect on TGF-β-stimulated collagen production: inhibitor plus TGF-β; for effect on PARC-stimulated collagen production: inhibitor plus PARC
Description: Collagen Production Assays. Collagen was quantified as described elsewhere (Atamas S P et al.). Briefly, fibroblasts were cultured with β-aminopropionitrile (Sigma) to prevent collagen cross-linking, and Western blotting assays for collagen were performed using rabbit affinity purified anti-collagen type I antibody (Rockland, Gilbertsville, Pa.). Before electrophoresis, samples were reduced and denatured by boiling in Laemmli buffer containing β-mercaptoethanol. Human purified collagen type I (Southern Biotech, Birmingham, Ala.) was used as a positive control in these assays. The identity of collagen bands was confirmed by sensitivity to pepsin and collagenase (both from Sigma) digestion, as described (Atamas S P et al.). Under these conditions, pro-collagen appears as a single or double band around 175 kDa (Gaidarova S et al., Stefanovic B et al.). Images were collected using a Storm densitometer and band densities analyzed with ImageQuant software (Molecular Dynamics, Sunnyvale, Calif.).
Western blotting assays for collagen were performed using rabbit affinity purified anti-collagen type I antibody (Rockland, Gilbertsville, Pa.). Before electrophoresis, samples were reduced and denatured by boiling in Laemmli buffer containing β-mercaptoethanol. Human purified collagen type I (Southern Biotech, Birmingham, Ala.) was used as a positive control in these assays.
Collagen was quantified by Western blotting and the identity of collagen bands was confirmed by sensitivity to pepsin and collagenase digestion as described elsewhere in Atamas et al. (Am. J. Respir. Cell. Mol., 29:743-749 (2003)). In these assays, pro-collagen appears as a single or double band with a molecular weight of approximately 175 kDa (4,27,28).

[2] = system: fibroblasts; details: reported for MCP-1; cited from earlier work
[3] = system: lung fibroblasts; test: Collagen production, metabolic labeling with 14C-proline, PAGE and autoradiography; type: cell-based, human; details: for effect on PARC activated collagen production: LF2 lung fibroblasts, 14C-proline
Description: Collagen Production Assays. Production of collagen was assessed using metabolic labeling with ^14C-proline and Western blotting with anti-collagen type I antibody. For metabolic labeling of collagen, fibroblasts were plated at 2×10^5 cells/well in 6-well plates (Costar, Cambridge, Mass.), in duplicates, incubated overnight in 3 ml/well of high serum medium, and then for 24 h in low-serum medium. After that, the culture medium was replaced with 1 ml/well of fresh low serum medium with or without added test substances and containing ^14C-proline at 1 μCi/ml (Amersham Pharmacia Biotech). After incubation for the desired periods of time, the cell culture supernatants were collected, rapidly frozen in liquid nitrogen and freeze-dried at −70° C. The pellets were dissolved in 100 μl of reducing Laemmli buffer per 1 ml of the cell culture supernatant, and the samples were electrophoretically separated in 7.5% acrylamide gels. Alternatively, samples were concentrated 10-fold by filter centrifugation on 30K Ultrafree-MC filters (Millipore, Bedford, Mass.). Fluorographic images were developed using EN[3H]ANCE autoradiography enhancer (NEN, Boston, Mass.). Gel images were acquired using Storm densitometer (Molecular Dynamics, Sunnyvale, Calif.), and the densities of the bands were analyzed with ImageQuant software (Molecular Dynamics). Dependence of collagen production by fibroblast cultures on the dose of PARC and duration of stimulation were evaluated using one-way ANOVA with post hoc testing.
The identity of collagen bands was confirmed by sensitivity to pepsin and collagenase (both from Sigma) digestion. For pepsin digestion, 2 μl of 1 Macetic acid were added to 40 μl of concentrated fibroblast culture supernatant, followed by 1 μl of pepsin stock, to achieve final concentration of pepsin as indicated in the text. After 15 min of digestion at room temperature, reaction was stopped with 4 μl of 1 M Tris base and 40 μl of reducing Laemmli buffer. For collagenase digestion, 1 μl of 4 U/ml bacterial collagenase and 1 μl of protease inhibitor cocktail (Sigma) were added to 40 μl of sample and digestion performed at room temperature for 30 min. The bacterial collagenase was highly purified and had minimal clostripain and neutral protease activity, as tested by the manufacturer, according to the product information sheet.
To test effects of rhPARC on collagen protein production by lung and dermal fibroblast cell lines, fibroblast cultures were incubated for 48 h with or without 30 ng/ml and 300 ng/ml rhPARC in the low-serum cell culture medium containing 14Cproline for metabolic labeling of collagen. Fibroblast culture supernatants contained two 14C-proline containing bands in gel electrophoresis under reducing conditions (FIGS. 13A and 13B). Digestion with chromatographically pure bacterial collagenase in the presence of protease inhibitors eliminated the bands completely (FIG. 13A). To confirm the identity of these bands, we conducted Western blotting experiments in reducing conditions of fibroblast culture supernatants using an anti-collagen type I antibody, that recognizes α1(I) collagen but not other collagen chains. Digestion with pepsin caused expected decrease in the apparent molecular weight of the immunoreactive collagen from ˜175 kD to ˜125 kD (FIG. 13C).

[4] = system: ERK1/2; test: Immunoblotting for phosphorylation of ERK1/2; type: cell-based, human; details: LF1, rhPARC 15 min, toxin 10 ng/ml
[5] = system: Smad3; test: Smad3 immunoprecipitation and phosphorylation Western blot; type: cell-based, human; details: fibroblasts activated with cytokine
Description: To determine if PARC stimulated phosphorylation of Sp1 and Smad3, these factors were immunoprecipitated from lysates of fibroblasts that had been activated with recombinant human PARC for up to 24 hours, and the levels of their phosphorylation were tested in Western blotting assays using anti-phosphoserine and anti-phospho-Smad2/3 antibodies. Equal loading was controlled by stripping the membranes and re-developing them with anti-Sp1, anti-Smad3 and anti-Smad2/3 antibodies (FIG. 17).
Preparation of fibroblast lysates, immunoprecipitation of Sp1 and Smad2/3, normalization of protein concentration in the samples with BioRad assays, electrophoretic separation, Western blotting, membrane stripping and re-development with different antibodies were performed as described in Atamas et al. (Am. J. Respir. Cell. Mol., 29:743-749 (2003); J. Immunol. 168: 1139-1145 (2002); and Arthritis Rheum., 42:1168-1178 (1999)), which are hereby incorporated by reference. Rabbit antibodies for total Smad2/3 and Sp1 were from Upstate (Waltham, Masss.). Antiphospho-Smad2/3 antibody and goat antibody for total Smad3 were from Santa Cruz Biotechnology (Santa Cruz, Calif.), as was anti-gp130 antibody used to confirm equal loading of the samples. Antiphosphoserine antibody was from Biomol (Plymouth Meeting, Pa.).

[6] = target: Autocrine (active) TGF-β secreted by human primary lung fibroblast cultures (human); test: cell-based or functional assay
[7] = system: α2(I) collagen mRNA; test: Real-time PCR for α2(I) collagen mRNA relative to 18S rRNA; type: cell-based, human; details: 10 μg/ml actinomycin D before stimulation with PARC
[8] = listed as Recombinant latency-associated peptide

Compound: NC(=O)c1ccc(-c2nc(-c3ccc4c(c3)OCO4)c(-c3ccccn3)[nH]2)cc1 [SB431542, reference compound]
effect on TGF-β-stimulated collagen production [1]: blocked TGF-β-stimulated; also recorded: abrogated TGF-β-stimulated

Compound: MCP-1: CC chemokine known to induce collagen production in pulmonary fibroblasts through autocrine TGF-β
concentration stimulating detectable collagen production [2]: 100 to 400 ng/mL

Compound: C[S+]([O-])c1ccc(-c2nc(-c3ccncc3)c(-c3ccc(F)cc3)[nH]2)cc1 (stereo not drawn) [SB203580, reference compound]
effect on PARC activated collagen production [3]: had no effect

Compound: Bordetella PT [reference compound]
effect on PARC-stimulated ERK phosphorylation [4]: inhibited phosphorylation of ERK; also recorded: block PARC-stimulated ERK phosphorylation

Compound: rhTGF-β1: Recombinant human TGF-β1 from R&D Systems, positive control for fibroblast stimulation
phosphorylation of immunoprecipitated Smad3 [5]: increased phosphorylation of Smad3

Compound: rhIL-4: recombinant human interleukin 4 purchased from R&D Systems
combined density of procollagen bands, fold higher than non-stimulated control ([3]; LF2 cells, 10 ng/ml rhIL-4, 48 h): 2.9 fold

Compound: rhLAP: Latency-associated peptide (R&D Systems) used for TGF-β neutralization
effect on PARC-stimulated collagen production [1, 8]: failed to block the effect of PARC
effect on TGF-β-stimulated collagen production [1]: inhibited stimulating effect of TGF-β
effect on TGF-β-stimulated collagen production ([1]; listed as Recombinant human LAP): inhibited stimulating effect of TGF-β
effect on TGF-β-stimulated collagen production [1, 8]: inhibited the effect of TGF-β

Compound: Aprotinin [reference compound]
effect on PARC-stimulated collagen production [1]: failed to inhibit the effect of PARC
effect on TGF-β-stimulated collagen production [1]: had no effect on collagen production

mink lung epithelial cell proliferation (thymidine incorporation); antibody concentration that abrogates the inhibition [6]: 1 µg/mL
Compound: Neutralizing anti-pan-TGF-β antibody, monoclonal mouse IgG1 clone 1D11 (R&D Systems)

Compound: Cc1c2oc3c(C)ccc(C(=O)N[C@@H]4C(=O)N[C@H](C(C)C)C(=O)N5CCC[C@H]5C(=O)N(C)CC(=O)N(C)[C@@H](C(C)C)C(=O)O[C@@H]4C)c3nc-2c(C(=O)N[C@@H]2C(=O)N[C@H](C(C)C)C(=O)N3CCC[C@H]3C(=O)N(C)CC(=O)N(C)[C@@H](C(C)C)C(=O)O[C@@H]2C)c(N)c1=O [actinomycin D, Actinomycin D, reference compound] (I: T[dV]P[Sar][NMeV] / II: T[dV]P[Sar][NMeV]; ester I:1-I:C, II:1-II:C; linker I:N-II:N via Actinocin(9to1))
effect on PARC-induced increase in collagen mRNA [7]: completely abrogated the increase in collagen mRNA

Compound: COc1cccc(-c2cc(=O)c3ccccc3o2)c1N [PD98059, reference compound]
effect on PARC activated collagen production [3]: inhibited PARC activated collagen production
